Data published in paper doi:10.1101/2024.09.04.611205v1 (biorxiv, 2024).

Legend:
cyclooxygenase 2 (COX-2) = target: T1, cyclooxygenase 2 (COX-2) (Homo sapiens, UniProt P35354); test: fluorimetric ADHP/resorufin assay; format: biochemical; details: read-out: % inhibition at 20 μM
T1 sequence (P35354 18-604): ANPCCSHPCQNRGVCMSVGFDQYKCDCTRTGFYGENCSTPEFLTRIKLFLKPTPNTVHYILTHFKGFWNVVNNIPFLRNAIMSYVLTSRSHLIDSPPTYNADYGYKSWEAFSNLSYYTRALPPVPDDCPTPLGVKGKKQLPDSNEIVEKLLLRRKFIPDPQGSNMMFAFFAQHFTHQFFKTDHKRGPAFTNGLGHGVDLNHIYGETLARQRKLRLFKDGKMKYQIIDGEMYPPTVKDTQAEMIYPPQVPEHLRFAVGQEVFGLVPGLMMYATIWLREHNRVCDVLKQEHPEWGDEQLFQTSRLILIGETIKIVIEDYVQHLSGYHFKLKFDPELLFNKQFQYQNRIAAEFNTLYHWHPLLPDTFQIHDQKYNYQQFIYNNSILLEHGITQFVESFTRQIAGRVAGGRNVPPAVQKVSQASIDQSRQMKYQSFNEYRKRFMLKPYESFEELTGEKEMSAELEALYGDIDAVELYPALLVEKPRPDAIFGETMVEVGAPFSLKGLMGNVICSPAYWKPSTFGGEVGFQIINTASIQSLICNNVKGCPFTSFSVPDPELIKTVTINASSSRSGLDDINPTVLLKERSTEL

cyclooxygenase 1 (COX-1) = cyclooxygenase 1 (COX-1) (Homo sapiens, UniProt P23219); test: fluorimetric ADHP/resorufin assay; format: biochemical; details: read-out: % inhibition at 20 μM
cyclooxygenase 1 (COX-1), sequence (P23219 24-599): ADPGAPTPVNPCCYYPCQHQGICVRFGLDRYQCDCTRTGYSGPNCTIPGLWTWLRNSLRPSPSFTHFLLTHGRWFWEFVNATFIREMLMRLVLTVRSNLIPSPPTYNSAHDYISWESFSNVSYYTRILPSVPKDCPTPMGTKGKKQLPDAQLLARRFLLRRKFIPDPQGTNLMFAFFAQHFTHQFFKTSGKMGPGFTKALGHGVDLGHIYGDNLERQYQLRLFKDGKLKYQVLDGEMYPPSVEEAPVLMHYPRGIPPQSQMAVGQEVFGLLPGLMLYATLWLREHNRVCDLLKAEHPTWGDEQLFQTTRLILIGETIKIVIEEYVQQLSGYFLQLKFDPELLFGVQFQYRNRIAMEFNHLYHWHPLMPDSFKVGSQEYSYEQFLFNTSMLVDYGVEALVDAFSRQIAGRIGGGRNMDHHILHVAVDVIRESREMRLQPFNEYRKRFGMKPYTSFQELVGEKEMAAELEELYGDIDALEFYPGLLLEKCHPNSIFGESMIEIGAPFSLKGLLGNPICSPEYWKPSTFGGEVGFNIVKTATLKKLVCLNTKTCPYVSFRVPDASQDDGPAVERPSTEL

SMILES: Cc1cccc(-c2n[nH]cc2-c2ccc3ncccc3n2)n1 [RepSox]
- inhibition at 20 µM (cyclooxygenase 2 (COX-2)): 13%
- inhibition at 20 µM (cyclooxygenase 1 (COX-1)): 61%
